Laboratory results taken from PubChem BioAssay (NCI).
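In this assay, cells in 96-well plates receive the compound at five concentrations for 48 hours. Endpoints are linearly interpolated between the surrounding concentrations. TGI: concentration producing complete growth inhibition.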

How the values were obtained:
Assay in all cases: DTP human tumour cell line panel, 48 h
A549 NSCLC = tested on: A549 NSCLC
CCRF-CEM leukemia = tested on: CCRF-CEM leukemia
HL-60(TB) leukemia = tested on: HL-60(TB) leukemia
LOX IMVI melanoma = tested on: LOX IMVI melanoma
MCF7 breast = tested on: MCF7 breast
NCI-H226 lung = tested on: NCI-H226 lung
OVCAR-8 ovarian = tested on: OVCAR-8 ovarian
SK-MEL-28 melanoma = tested on: SK-MEL-28 melanoma
SNB-75 CNS = tested on: SNB-75 CNS
SR leukemia = tested on: SR leukemia

| SMILES | TGI (A549 NSCLC) | TGI (CCRF-CEM leukemia) | TGI (HL-60(TB) leukemia) | TGI (LOX IMVI melanoma) | TGI (MCF7 breast) | TGI (NCI-H226 lung) | TGI (OVCAR-8 ovarian) | TGI (SK-MEL-28 melanoma) | TGI (SNB-75 CNS) | TGI (SR leukemia) |
| --- | --- | --- | --- | --- | --- | --- | --- | --- | --- | --- |
| O=C1CCSc2c(cnc3ccccc23)N1 | > 100 µM | > 100 µM | > 100 µM | > 100 µM | > 100 µM | > 100 µM | > 100 µM | > 100 µM | > 100 µM | > 100 µM |
| C[C@@H]1OC2(O)[C@@H]3CCCN3C(=O)N(Cc3ccccc3)N2C1=O (stereo not given in full) | > 100 µM | > 100 µM | > 100 µM | > 100 µM | > 100 µM | > 100 µM | > 100 µM | > 100 µM | 88.7 µM | > 100 µM |
| COc1ccc(CCN(C)C(=O)CC(C#N)(c2ccccc2)c2ccc(OC)c(OC)c2)cc1OC (stereo not given) | > 100 µM | > 100 µM | > 100 µM | > 100 µM | > 100 µM | > 100 µM | > 100 µM | > 100 µM | > 100 µM | 99.3 µM |
| C#C[C@]1(O)CC[C@H]2[C@@H]3CCC4=C/C(=N\OCCN5CCCC5)CC[C@]4(C)[C@H]3CC[C@@]21C | > 59.8 µM | 51.6 µM | 8.57 µM | 33 µM | 21.5 µM | 55.5 µM | 40.7 µM | 44.6 µM | 24.7 µM | 13.3 µM |
| C=CC1(c2ccc(Br)cc2)OCCCO1 | > 100 µM | > 100 µM | > 100 µM | > 100 µM | > 100 µM | > 100 µM | > 100 µM | > 100 µM | > 100 µM | > 100 µM |
| CC(C)=CCC[C@@H](C)C1=C(Nc2ccccc2)C(O)=C(C)C(=O)C1=O | 13.5 µM | 0.874 µM | 1.35 µM | 97.1 µM | 22.5 µM | 18.1 µM | 23.5 µM | 30.9 µM | 15.6 µM | 6.08 µM |
| CC(=C(C(=O)O)C(=O)O)c1cc(-c2cccs2)cc(-c2ccc(Cl)cc2)c1O | > 80.8 µM | > 76.5 µM | 46.6 µM | 29.6 µM | 17.9 µM | > 72.2 µM | 52.8 µM | 36.3 µM | 37.6 µM | 37.1 µM |
| N=C(N)C1CN(CC=O)C(=O)NC1=O (stereo not given) | > 100 µM | > 100 µM | > 100 µM | > 100 µM | > 100 µM | > 100 µM | > 100 µM | > 100 µM | > 100 µM | > 100 µM |
| C/C(=C/CNc1ncnc2c1ncn2CCC#N)CO | > 100 µM | > 100 µM | > 100 µM | > 100 µM | > 100 µM | > 100 µM | > 100 µM | > 100 µM | > 100 µM | > 100 µM |
| COc1ccccc1CNCc1nc2ccccc2[nH]1 | > 100 µM | > 100 µM | > 100 µM | > 100 µM | > 100 µM | > 100 µM | > 100 µM | > 100 µM | > 100 µM | > 100 µM |
| O=Cc1ccc2c(c1)CC1(C2)Cc2ccc(C=O)cc2C1 | > 95.3 µM | 5.9 µM | 5.72 µM | 21.8 µM | > 70 µM | 62.6 µM | 31.3 µM | 59.1 µM | > 100 µM | 6.77 µM |
| CCOC(=O)c1c(-c2ccccc2)[nH]c2ccc(Cl)cc2c1=O | > 100 µM | > 100 µM | > 100 µM | > 100 µM | > 100 µM | > 100 µM | > 100 µM | > 100 µM | > 100 µM | > 100 µM |
| O=c1[nH]c2ccsc2c(=O)n1COCc1ccccc1 | > 100 µM | > 100 µM | > 100 µM | > 100 µM | > 100 µM | > 100 µM | > 100 µM | > 100 µM | > 100 µM | > 100 µM |
| CC1=[N+]([O-])C(C)(C)N(O)C1(C)C | > 100 µM | > 100 µM | > 100 µM | > 100 µM | > 100 µM | > 100 µM | > 100 µM | > 100 µM | > 100 µM | > 100 µM |
